Results from patent publication US20070196514A1, “Prostate cancer treatment with glycogen synthase kinase-3beta inhibitors” (priority 2006, published 2007).

Tested on: PC-3 xenografts
Test: mouse xenograft model, protocol B (palpable tumors), with in vivo BrdU labeling and TUNEL
Design: species or system nude mice
Procedure: All animal studies were conducted under an approved Institutional Animal Care and Use Committee protocol. Single cell suspensions (2×10^6 cells in 0.1 ml of RPMI1640 medium plus 10% FBS) were inoculated subcutaneously (s.c.) into the rear flanks (two sites/mouse) of 6 to 7 weeks old male nude mice (Charles River, Wilmington, Mass.). For protocol A, mice were randomly divided into two groups (5 animals each). On next day after inoculation, one group of animals received i.p. injection of LiCl at a daily dose of 2 mg/kg body weight. LiCl was dissolved in PBS. The control groups of animals received PBS alone in the same volume. Xenograft development and growth were monitored for 8 weeks. The tumor dimensions were measured twice a week. The tumor volume was calculated by the formula of L×W×H×0.5236 (Miyake 2001). At the end of treatment, xenograft tumors were extirpated, and the final tumor size and weight, as well as animal weight were measured. For protocol B, treatment began until tumor became palpable or 50 mm^3 in size, and LiCl or PBS was injected (5 animals each group) as above for a two-week course. Tumor size and weight were measured at the end of treatment. For BrdU in vivo labeling, the animals were injected i.p. with 0.5 ml of a 10-mM BrdU solution (Invitrogen) 2 hours before sacrifice. For experiments involving LNCaP-BclxL SB216763 subline cells (Liao 2005) were inoculated as above, and SB216763 treatment was started two weeks later when palpable xenografts were established. […] Tumor growth was monitored as discussed herein. […]
In protocol B, animals were treated with LiCl at 2 mg/kg for a two-week course when PC-3 xenografts were palpable or about […] in size. Tumor weight was measured at the endpoint of treatment and was compared between LiCl-treated and PBS control groups.
Next, the DNA synthesis associated with LiCl-induced tumor suppression in vivo was also investigated. DNA synthesis was measured by an in vivo BrdU incorporation assay. Meanwhile, apoptotic events, if any, were detected using TUNEL assay. […]

## [Cl-].[Li+] [LiCl, Lithium chloride]
LiCl 2 mg/kg
  TUNEL staining (apoptotic events) in xenografts, LiCl vs PBS: did not show any difference
In vivo BrdU incorporation, BrdU injected two hours before sacrifice
  BrdU labeling in xenografts vs PBS control: significantly reduced
Protocol B, LiCl 2 mg/kg, two-week course on palpable xenografts
  tumor weight vs PBS control: significantly reduced
